# Tests used:
# gastric acid secretion = test: Inhibitory activity with regard to gastric acid secretion (Shay procedure); assay type: in vivo; conditions: Rattus norvegicus, intraduodenal; male Wistar rats, pylorus ligation, i.d., 2 hours; read-out: ED50 (inhibition of gastric acid secretion)
# Experimental: This activity is determined by means of the Shay procedure (H. Shay et al., Gastroenterology, 1945, 5, 43; Visscher et al., J. Pharmac. Exp. Ther., 1954, 110, 188).
# Male Wistar rats weighing from 200 to 250 g are used in this test, which rats are deprived of food up to the day preceding the test, with free access to water. Batches of 4 animals each are used, at least.
# The rats are anesthetized with ethyl ether, a laparotomy is performed on them and their pylori are tied, and then an abdominal incision is made. The products are administered intraduodenally (i.d.) before suturing the abdominal incision. The dose administered in the first test is 40 mg/kg and then the median effective dose (ED50) is determined. The vehicle used is gum arabic at 5% w/v in doubly-distilled water.
# Two hours after ligating the pylori, the rats are sacrificed by prolonged anesthesia with ethyl ether and the volume of gastric juice is measured. The total acidity is determined by means of a pH meter equipped with an automatic burette. For each product and for each dose tested, the percentage of inhibition of gastric acid secretion is determined with respect to a reference batch.
# [1] = tested on: nausea caused by the movement (travel sickness); test: Travel sickness in the shrew (Suncus murinus); assay type: in vivo; conditions: for Number of episodes of nausea/vomiting: motion 1 hertz 4 cm for 20 min
# Excerpt: The compound of Example 3 is studied with regard to its effect on travel sickness, (vertigo) induced in, Suncus murinus according to the method described by N. Matsuki et al. (“Mechanisms and Control of Emesis”, John Libbey Emotex, 1992, 233, 323-329). Males of the species Suncus murinus weighing 58-72 grams are housed in groups of 3 and are allowed free access to solid food and to water. One hour before the test, they are presented with cat food in their housing cage. At the beginning of the test, the animals receive the treatment with the test product by the i.p. route. After 30 minutes, they are placed individually in the test boxes (15×15×10 cm). The boxes are connected to a motor which displaces them over several wheels forward and backward with a frequency which induces nausea in them (travel sickness). This frequency is 1 hertz with an amplitude of displacement of 4 cm. The animals are left in the test boxes for 30 minutes, in order for them to become used to their surroundings, and then the active movement of the cages is begun for 20 minutes, in order to determine the presence or the absence of nausea (without passage of matter from the digestive tract) and of vomiting (with passage of matter from the digestive tract).
# [2] = tested on: conditioned avoidance response; test: Test of conditioned avoidance response (C.A.R.); assay type: in vivo; conditions: Rattus norvegicus, po; male Wistar rats, p.o., 45 minutes before the study; read-out: ED50 (suppression of conditioned avoidance response)
# Experimental: In this test, use is made of male Wistar rats weighing 200 g trained to leap a barrier in a Letica shuttle box (references LI 910 and LI 2700) during the 30 seconds which follow their introduction into the box. Products having an anxiolytic or tranquilizing activity suppress the conditioned avoidance response. Training: first day, 11 tests at intervals of 3 minutes. Electric shock in the paws at 30 seconds (5 mA, 0.1 s, 10 s). Second and third days: two daily tests, only with the selected rats {some of the grades of the first day (except the first test) >14}. Day of the test: groups formed by the selected rats. Oral administration of the product or vehicle 45 minutes before the beginning of the study.
# [3] = tested on: nausea induced by cisplatin; test: Antiemetic activity: nausea/vomiting induced by cisplatin in ferrets; assay type: in vivo; conditions: ferret; for Number of episodes of nausea/vomiting: cisplatin 10 mg/kg i.v., 240 min observation
# Experimental: (§1) The compounds obtained in the invention are studied with regard to their effects on nausea in ferrets according to a method described by Costall et al. (Neuropharmacology, 1986, 25, 959-961). Ferrets of both sexes (0.7-1.4 kg) are individually housed at 21±1° C. and fed normally. The compound of the example or a vehicle is subsequently administered to them subcutaneously as pretreatment 15 minutes before the administration of copper sulfate (CuSO4.5H2O; 100 mg/kg by the intragastric route) or cisplatin (10 mg/kg i.v. by means of a permanent jugular cannula). The animals are observed at the beginning of vomiting and then for 30 minutes (copper sulfate) or 240 minutes (cisplatin). Vomiting is characterized by rhythmic abdominal contractions, either associated with the expulsion of solid or liquid matter (vomit) or not associated with the passage of matter via the mouth (nausea). The number of episodes and nausea or vomiting are recorded.
# 5HT1A serotonin receptor = target: T1, 5HT1A serotonin receptor (Rattus norvegicus, UniProt P19327); test: Binding to the 5HT1A serotonin receptor (rat hippocampus homogenate, [3H]-8-HO-DPAT); conditions: 15 minutes at 37° C., read-out: Ki (inhibition constant)
# T1 construct: A rat hippocampus homogenate is used; from tissue; host or cells: rat hippocampus homogenate
# T1 sequence (P19327 1-422): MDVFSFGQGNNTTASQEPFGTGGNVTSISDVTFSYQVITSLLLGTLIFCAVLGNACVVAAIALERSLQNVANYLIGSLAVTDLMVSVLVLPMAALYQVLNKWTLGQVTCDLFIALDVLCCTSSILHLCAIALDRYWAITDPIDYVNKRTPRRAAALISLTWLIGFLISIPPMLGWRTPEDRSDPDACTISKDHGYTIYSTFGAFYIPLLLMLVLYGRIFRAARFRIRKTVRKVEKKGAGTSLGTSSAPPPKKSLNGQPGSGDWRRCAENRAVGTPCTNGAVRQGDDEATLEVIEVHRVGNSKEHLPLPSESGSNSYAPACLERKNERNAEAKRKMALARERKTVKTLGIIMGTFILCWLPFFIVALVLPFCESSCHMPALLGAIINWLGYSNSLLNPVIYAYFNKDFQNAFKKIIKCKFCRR
# Experimental: A rat hippocampus homogenate is used, a modification of the method of S. J. Peroutka (Neurochem., 1986, 47, 529) being followed. [^3H]-8-HO-DPAT is used as radioligand and serotonin is used to measure the nonspecific binding. The incubation time is 15 minutes at a temperature of 37° C. The radioligand bonded to the protein is separated by filtration through glass fiber filters and the radioactivity retained on the filter is determined by liquid scintillation. The inhibitIon constant (Ki, nM) is calculated by nonlinear regression analysis using the EBDA/LIGAND program (Munson and Rodbard, Analytical Biochemistry, 1980, 107, 220).
# [4] = tested on: nausea induced by copper sulfate; test: Antiemetic activity: nausea/vomiting induced by copper sulfate in ferrets; assay type: in vivo; conditions: ferret; for Number of episodes of nausea/vomiting: copper sulfate 100 mg/kg intragastric, 30 min observation
# Experimental: as §1
smiles,measurement,setting,value
"Cc1nc(Cl)c(Cl)n1CCCCN1CCN(c2ncc(F)cn2)CC1.O=C(O)CC(O)(CC(=O)O)C(=O)O [Example 3, 2-{4-[4-(4,5-dichloro-2-methylimidazol-1-yl)butyl]piperazin-1-yl}-5-fluoropyrimidine citrate]",ED50,gastric acid secretion,1.9 mg/kg
same,Effect on nausea caused by the movement (travel sickness) (in words),[1]; doses of 0.01 to 10 mg/kg i.p.,markedly inhibits the nausea caused by the movement (travel sickness)
same,Number of episodes of nausea/vomiting,[1]; 0.001 mg/kg i.p.,8.38 ± 1.41 (NS)
same,Number of episodes of nausea/vomiting,[1]; 0.01 mg/kg i.p.,0.33 ± 0.21 (*)
same,Number of episodes of nausea/vomiting,[1]; 0.1 mg/kg i.p.,2.17 ± 0.83 (*)
same,Number of episodes of nausea/vomiting,[1]; 1.0 mg/kg i.p.,0.33 ± 0.21 (*)
same,Number of episodes of nausea/vomiting,[1]; 10.0 mg/kg i.p.,0 ± 0 (*)
same,ED50,[2],9.7 mg/kg
same,Number of episodes of nausea/vomiting,[3]; 0.001 mg/kg s.c.,13.8 ± 2.4 (NS)
same,Number of episodes of nausea/vomiting,[3]; 0.01 mg/kg s.c.,6.5 ± 3.1 (*)
same,Number of episodes of nausea/vomiting,[3]; 0.1 mg/kg s.c.,3.1 ± 2.9 (*)
same,Number of episodes of nausea/vomiting,[3]; 1 mg/kg s.c.,3.0 ± 2.0 (*)
same,Effect on nausea induced by cisplatin (in words),[3]; s.c.,opposing the nausea induced by cisplatin
same,Ki,5HT1A serotonin receptor,19.4 nM
same,Number of episodes of nausea/vomiting,[4]; 0.001 mg/kg s.c.,7.4 ± 1.2 (NS)
same,Number of episodes of nausea/vomiting,[4]; 0.01 mg/kg s.c.,3.2 ± 0.6 (*)
same,Number of episodes of nausea/vomiting,[4]; 0.1 mg/kg s.c.,1.0 ± 0.2 (*)
same,Number of episodes of nausea/vomiting,[4]; 1 mg/kg s.c.,1.7 ± 0.3 (*)
same,Effect on nausea induced by copper sulfate (in words),[4]; s.c.,capable of altering the nausea induced by copper sulfate
